In test [1] the test system is Pu22T14T23 (DNA, G4) TGAGGGTGGGTAGGGTGGGTAA
As to the kind of experiment: 1H NMR titration and NOESY. As to conditions: 70 mM KCl.

Test [2] deals with d(CGTACG)2 ("CG") (DNA, duplex) CGTACG. Description: 1H and 31P NMR titration. The conditions noted are these: 0.1 M NaCl; 10 mM sodium phosphate pH 7.0, 15 °C; partial intercalation.
The subject of test [3] is d(AAGAATTCTT)2 ("AATT") (DNA, duplex) AAGAATTCTT
Description: 1H and 31P NMR titration. The conditions noted are these: 0.1 M NaCl; 10 mM sodium phosphate pH 7.0, 15 °C; external interaction, no intercalation.

Test [4] has as its system d(TTAGGGT)4 (DNA, G4) TTAGGGT. Description: 1H NMR titration and NOESY. As to conditions: 150 mM KCl; 25 mM K-phosphate pH 6.7, 1 mM EDTA, 25 °C; sites A3-G4 and over G6.
The subject of test [5] is Pu22T14T23 (DNA, G4) TGAGGGTGGGTAGGGTGGGTAA
As to the kind of experiment: ligand fluorescence titration, EQUISPEC fit. As to conditions: 3 µM ligand, 1:1 model.

Test [6] relates to d(TTAGGGT)4 (DNA, G4) TTAGGGT. Description: ligand fluorescence titration, EQUISPEC fit. The conditions noted are these: 3 µM ligand, 1:1 model.
Test [7] concerns Pu22T14T23 (DNA, G4) TGAGGGTGGGTAGGGTGGGTAA
As to the kind of experiment: reverse fluorescence titration (DNA titrated with ligand), EQUISPEC fit. The conditions noted are these: 70 mM KCl; 25 mM phosphate pH 6.9, 20 °C; 2.4 µM DNA; overall constant of 1:2 model.

Setting [8] is: 70 mM KCl, 25 mM phosphate pH 6.9, 20 °C.

For `C[C@]1(c2nc3c(C(N)=O)cccc3[nH]2)CCCN1`, the binding result in test [1] (25 mM KH2PO4 pH 6.9, 25 °C, no shift change, no NOE) is on record as “no”.
For the compound `NC(=O)Cn1ccc2ccc(-c3ccc(CN4CCCC4)cc3)nc21`, the binding result was “weak” in test [2]; “weak” in test [3]; “yes” in test [1] (25 mM phosphate pH 6.9, 25 °C, stacks on 5' and 3' end tetrads); “yes” in test [4]; “yes” in test [5] (PBS (Na+; composition not given), PBS, 20 °C, stated similar to K+ buffer). The Kb in test [5] (setting [8]) is listed as ~ 10^6.1 M^-1; in test [6] (setting [8]), ~ 10^6.1 M^-1; in test [6] (PBS (Na+; composition not given), PBS, 20 °C, printed as d(TTAGGG)4), ~ 10^5.1 M^-1. The “overall Kb” value in test [7] is reported as 10^12.8 M^-2.
